# Experimental data published in patent US20100317673A1, “N-HETEROCYCLIC-IMIDAZO[1,2-a]PYRIDINE-2-CARBOXAMIDE DERIVATIVES, THEIR PREPARATION AND THEIR THERAPEUTIC APPLICATION” (SANOFI-AVENTIS, priority 2008, published 2010).
# Target: T1, mouse Nurr1 receptor (Mus musculus, UniProt Q06219)
# T1 construct: a cell line (N2A) endogenously expressing the mouse Nurr1 receptor; host or cells: Neuro-2A (N2A) mouse neuroblastoma cells stably transfected with 8NBRE-luciferase
# Experiment: In vitro activity on N2A cells (NBRE-luciferase reporter)
# Assay type: cell-based
# Details: N2A (Neuro-2A) cells endogenously expressing mouse Nurr1, stably transfected with 8NBRE-luciferase; 24 hours incubation
# Procedure: The activity of the compounds according to the invention was evaluated on a cell line (N2A) endogenously expressing the mouse Nurr1 receptor and stably transfected with the NOT binding response element (NBRE) coupled to the luciferase reporter gene. The EC50 values are between 0.01 and 1000 nM. The assays were carried out according to the procedure described below.
# The Neuro-2A cell line comes from a standard commercial source (ATCC). The Neuro-2A clone was obtained, from a spontaneous tumour originating from an A albino mouse strain, by R. J Klebe et al. This Neuro-2A line is subsequently stably transfected with 8NBRE-luciferase. The N2A-8NBRE cells are cultured until confluence in 75 cm^2 culture flasks containing DMEM supplemented with 10% of foetal calf serum, 4.5 g/l of glucose and 0.4 mg/ml of geneticin. After a week of culture, the cells are recovered with 0.25% trypsin for 30 seconds and then resuspended in DMEM without phenol red, containing 4.5 g/l of glucose and 10% of Hyclone delipidized serum, and deposited into transparent-bottom 96-well white plates. The cells are deposited at a rate of 60 000 per well in 75 μl for 24 hours before the addition of the products. The products are applied in 25 μl and incubated for a further 24 hours. On the day of the measurement, an equivalent volume (100 μl) of Steadylite is added to each well and then left for a period of 30 minutes in order to obtain complete cell lysis and maximum signal production. The plates are subsequently measured in a luminescence counter for microplates after having been sealed with an adhesive film. The products are prepared in the form of a stock solution at 10^−2M and then diluted in 100% of DMSO. Each product concentration is prediluted in culture medium before incubation with the cells, thus containing 0.625% final concentration of DMSO.
# T1 sequence (Q06219 whole entry): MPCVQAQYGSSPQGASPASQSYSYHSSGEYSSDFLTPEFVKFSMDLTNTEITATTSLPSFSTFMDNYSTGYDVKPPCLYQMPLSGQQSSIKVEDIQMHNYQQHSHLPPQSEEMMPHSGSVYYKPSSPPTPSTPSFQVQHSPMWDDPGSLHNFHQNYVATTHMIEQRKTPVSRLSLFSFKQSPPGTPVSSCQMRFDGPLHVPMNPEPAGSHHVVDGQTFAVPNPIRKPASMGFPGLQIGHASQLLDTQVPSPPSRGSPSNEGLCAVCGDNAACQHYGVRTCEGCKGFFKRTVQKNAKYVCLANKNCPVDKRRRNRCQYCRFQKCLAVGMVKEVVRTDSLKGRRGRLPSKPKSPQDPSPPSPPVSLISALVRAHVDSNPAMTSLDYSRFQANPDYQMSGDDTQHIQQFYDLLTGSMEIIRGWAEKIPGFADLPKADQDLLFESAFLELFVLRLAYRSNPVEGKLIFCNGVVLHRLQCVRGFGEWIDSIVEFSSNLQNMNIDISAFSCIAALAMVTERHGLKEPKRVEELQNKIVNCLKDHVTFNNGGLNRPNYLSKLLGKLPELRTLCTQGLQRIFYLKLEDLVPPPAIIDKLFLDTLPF
row,EC50,Structure (SMILES)
1,2.2 nM,"O=C(Nc1ccccn1)c1cn2cc(Cl)ccc2n1 [Compound 4, 6-Chloro-N-(pyridin-2-yl)imidazo[1,2-a]pyridine-2-carboxamide]"
2,0.5 nM,"CN(C)c1ccc2nc(C(=O)Nc3ccccn3)cn2c1 [Compound 8, 6-(Dimethylamino)-N-(pyridin-2-yl)imidazo[1,2-a]pyridine-2-carboxamide]"
3,10.5 nM,"CN(C)c1ccc2nc(C(=O)Nc3ccon3)cn2c1 [Compound 39, 6-(Dimethylamino)-N-(isoxazol-3-yl)imidazo[1,2-a]pyridine-2-carboxamide]"
4,0.04 nM,"O=C(Nc1ccccn1)c1cn2cc(-c3cccc(CO)c3)ccc2n1 [Compound 7, 6-[3-(Hydroxymethyl)phenyl]-N-(pyridin-2-yl)imidazo[1,2-a]pyridine-2-carboxamide]"
